# Values of other authors, collected in patent US20190307734A1 (Zhuhai Beihai Biotech Co., Ltd., priority 2016, published 2019).
# Assays:
# CYP 2C9 = CYP 2C9 (Homo sapiens, UniProt P11712); settings: in vitro
# [1] = tested on: cytochrome P450 3A4 (CYP3A4)
# CYP 2D6 = CYP 2D6 (Homo sapiens, UniProt P10635); settings: in vitro
# p-glycoprotein = p-glycoprotein (Homo sapiens, UniProt P08183); settings: in vitro
# [2] = not given; remark: listed apart in the source
# CYP 2C19 = CYP 2C19 (Homo sapiens, UniProt P33261); settings: in vitro
# CYP 2C19, sequence (P33261 whole entry): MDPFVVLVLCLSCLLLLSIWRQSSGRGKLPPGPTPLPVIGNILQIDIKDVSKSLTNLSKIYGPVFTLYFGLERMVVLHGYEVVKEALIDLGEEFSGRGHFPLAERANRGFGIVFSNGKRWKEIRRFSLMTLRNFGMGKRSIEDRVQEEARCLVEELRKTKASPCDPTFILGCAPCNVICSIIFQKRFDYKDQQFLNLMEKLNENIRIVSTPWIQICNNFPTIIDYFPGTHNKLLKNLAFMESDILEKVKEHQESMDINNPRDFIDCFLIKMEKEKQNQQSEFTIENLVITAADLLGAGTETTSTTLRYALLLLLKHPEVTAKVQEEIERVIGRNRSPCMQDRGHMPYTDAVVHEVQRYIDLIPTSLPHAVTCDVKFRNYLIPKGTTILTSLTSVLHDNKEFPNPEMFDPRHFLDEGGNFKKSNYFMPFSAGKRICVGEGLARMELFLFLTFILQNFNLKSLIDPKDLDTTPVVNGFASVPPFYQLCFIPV
# CYP 2C9, sequence (P11712 whole entry): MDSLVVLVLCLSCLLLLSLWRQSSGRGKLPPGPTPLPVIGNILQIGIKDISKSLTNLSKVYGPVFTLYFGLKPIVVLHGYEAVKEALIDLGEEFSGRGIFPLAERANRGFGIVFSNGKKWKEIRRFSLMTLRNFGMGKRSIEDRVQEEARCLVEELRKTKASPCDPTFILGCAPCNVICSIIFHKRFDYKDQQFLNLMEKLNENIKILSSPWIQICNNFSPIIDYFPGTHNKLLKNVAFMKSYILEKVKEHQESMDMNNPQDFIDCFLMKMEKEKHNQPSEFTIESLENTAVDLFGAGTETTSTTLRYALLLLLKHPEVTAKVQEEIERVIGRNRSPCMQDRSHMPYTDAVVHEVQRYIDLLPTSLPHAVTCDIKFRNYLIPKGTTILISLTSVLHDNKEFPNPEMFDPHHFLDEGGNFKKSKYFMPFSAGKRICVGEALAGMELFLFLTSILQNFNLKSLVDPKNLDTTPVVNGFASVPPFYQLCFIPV
# CYP 2D6, sequence (P10635 whole entry): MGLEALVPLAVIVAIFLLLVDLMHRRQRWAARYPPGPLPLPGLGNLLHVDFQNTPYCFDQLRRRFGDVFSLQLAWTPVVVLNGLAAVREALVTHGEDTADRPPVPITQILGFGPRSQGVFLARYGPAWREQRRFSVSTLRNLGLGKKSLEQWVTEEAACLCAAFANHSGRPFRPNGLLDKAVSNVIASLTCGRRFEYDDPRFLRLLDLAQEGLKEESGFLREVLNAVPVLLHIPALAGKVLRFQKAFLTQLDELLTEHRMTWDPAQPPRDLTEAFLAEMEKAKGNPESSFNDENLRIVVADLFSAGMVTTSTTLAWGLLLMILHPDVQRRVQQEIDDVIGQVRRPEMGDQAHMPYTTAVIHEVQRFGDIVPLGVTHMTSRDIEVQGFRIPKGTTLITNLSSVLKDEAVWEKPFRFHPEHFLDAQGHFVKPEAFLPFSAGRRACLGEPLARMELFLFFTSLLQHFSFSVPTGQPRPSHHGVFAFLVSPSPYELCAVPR
# p-glycoprotein, sequence (P08183 whole entry): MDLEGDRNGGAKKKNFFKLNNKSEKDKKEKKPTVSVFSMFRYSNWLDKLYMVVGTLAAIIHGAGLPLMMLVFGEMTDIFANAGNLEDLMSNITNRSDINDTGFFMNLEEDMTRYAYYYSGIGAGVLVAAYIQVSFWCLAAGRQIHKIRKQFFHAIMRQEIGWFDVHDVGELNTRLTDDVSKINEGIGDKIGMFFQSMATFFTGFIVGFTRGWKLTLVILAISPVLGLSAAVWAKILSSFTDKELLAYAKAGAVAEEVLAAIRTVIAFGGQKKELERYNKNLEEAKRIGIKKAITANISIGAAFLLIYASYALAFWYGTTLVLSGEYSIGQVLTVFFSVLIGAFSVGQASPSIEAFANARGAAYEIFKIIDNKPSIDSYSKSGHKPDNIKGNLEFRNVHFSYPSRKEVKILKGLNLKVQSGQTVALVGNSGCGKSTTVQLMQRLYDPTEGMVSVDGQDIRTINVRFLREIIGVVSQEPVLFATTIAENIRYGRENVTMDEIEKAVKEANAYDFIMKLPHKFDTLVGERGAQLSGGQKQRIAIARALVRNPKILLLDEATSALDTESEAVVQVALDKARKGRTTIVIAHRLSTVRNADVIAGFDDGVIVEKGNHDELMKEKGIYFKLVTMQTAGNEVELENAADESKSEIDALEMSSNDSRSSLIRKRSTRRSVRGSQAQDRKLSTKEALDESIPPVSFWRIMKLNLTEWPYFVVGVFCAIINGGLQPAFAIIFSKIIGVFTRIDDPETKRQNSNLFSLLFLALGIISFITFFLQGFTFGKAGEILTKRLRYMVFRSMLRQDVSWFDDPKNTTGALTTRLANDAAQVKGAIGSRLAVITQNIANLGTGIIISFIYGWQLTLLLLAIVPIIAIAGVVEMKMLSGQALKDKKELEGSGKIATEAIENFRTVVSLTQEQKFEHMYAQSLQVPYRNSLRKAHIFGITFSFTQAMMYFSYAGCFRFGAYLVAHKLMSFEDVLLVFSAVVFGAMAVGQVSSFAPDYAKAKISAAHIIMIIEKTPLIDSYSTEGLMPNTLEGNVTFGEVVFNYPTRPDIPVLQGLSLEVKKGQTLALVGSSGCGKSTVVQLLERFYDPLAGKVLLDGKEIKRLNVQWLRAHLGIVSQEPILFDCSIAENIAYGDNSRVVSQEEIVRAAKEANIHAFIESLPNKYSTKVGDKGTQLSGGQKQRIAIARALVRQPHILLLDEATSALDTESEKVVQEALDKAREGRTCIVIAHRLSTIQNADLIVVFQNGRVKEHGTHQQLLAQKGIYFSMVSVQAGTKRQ
SMILES,inhibition of CYP 2C9 (CYP 2C9),protein bound to human plasma (human plasma) [%],absorption after oral dosing,"induction or inhibition of CYP3A4 enzyme ([1]; Hesketh et al., Cancer 2016)",inhibition of CYP 3A4 ([1]; in vitro),inhibition of CYP 2D6 (CYP 2D6),inhibition of p-glycoprotein (p-glycoprotein),solubility at physiological pH ([2]; pH 7.4) [mcg/ml],solubility in water ([2]; water),inhibition of CYP 2C19 (CYP 2C19),"solubility in aqueous solution, pH dependence ([2]; aqueous solution)","solubility in common pharmaceutical solvents ([2]; ethanol, propylene glycol, 40% hydroxypropyl beta cyclodextrin)"
"C[C@@H](OC[C@@]1(c2ccccc2)CC[C@]2(CCC(=O)N2)CN1)c1cc(C(F)(F)F)cc(C(F)(F)F)c1 [Rolapitant, rolapitant]",did not inhibit,99.8,rapidly absorbed,does not induce or inhibit,did not inhibit,did not inhibit,did not inhibit,< 4,practically insoluble,did not inhibit,,
"C[C@@H](OC[C@@]1(c2ccccc2)CC[C@]2(CCC(=O)N2)CN1)c1cc(C(F)(F)F)cc(C(F)(F)F)c1.Cl [Rolapitant hydrochloride, rolapitant hydrochloride]",,,,,,,,,,,pH-dependent and is more soluble at lower pH,good solubility
